pIC50: −log10 of the molar value.
Experiments:
HER2 = molecular target: T1, HER2 (Homo sapiens, UniProt P04626); test: biochemical; design: Purified kinase inhibition, Z'-LYTE (HER, mTOR, DNA-PK) or Adapta (PI3K), ATP at Km apparent
T1 construct: gene ERBB2; Km ATP
Method: (§1) IC50 values were determined at a concentration of ATP corresponding to the Km apparent for that kinase.

HER4 = molecular target: T2, HER4 (Homo sapiens, UniProt Q15303); test: biochemical; design: Purified kinase inhibition, Z'-LYTE (HER, mTOR, DNA-PK) or Adapta (PI3K), ATP at Km apparent
T2 construct: gene ERBB4; Km ATP
Method: as §1

mTOR = molecular target: T3, mTOR (Homo sapiens, UniProt P42345); test: biochemical; design: Purified kinase inhibition, Z'-LYTE (HER, mTOR, DNA-PK) or Adapta (PI3K), ATP at Km apparent
T3 construct: Km ATP
Method: as §1

EGFR = EGFR (Homo sapiens, UniProt P00533); test: biochemical; design: Km ATP; Purified kinase inhibition, Z'-LYTE (HER, mTOR, DNA-PK) or Adapta (PI3K), ATP at Km apparent
Method: as §1

PI3Kβ = molecular target: T4, PI3Kβ (Homo sapiens, UniProt P42338); test: biochemical; design: Purified kinase inhibition, Z'-LYTE (HER, mTOR, DNA-PK) or Adapta (PI3K), ATP at Km apparent
T4 construct: gene PIK3CB; Km ATP
Method: as §1

PI3Kδ = molecular target: T5, PI3Kδ (Homo sapiens, UniProt O00329); test: biochemical; design: Purified kinase inhibition, Z'-LYTE (HER, mTOR, DNA-PK) or Adapta (PI3K), ATP at Km apparent
T5 construct: gene PIK3CD; Km ATP
Method: as §1

PI3Kα = PI3Kα (Homo sapiens, UniProt P42336); test: biochemical; design: gene PIK3CA; Km ATP; Purified kinase inhibition, Z'-LYTE (HER, mTOR, DNA-PK) or Adapta (PI3K), ATP at Km apparent
Method: as §1

PI3Kγ [1] = molecular target: T6, PI3Kγ (Homo sapiens, UniProt P48736); test: biochemical; design: gene PIK3CG; Km ATP; Purified kinase inhibition, Z'-LYTE (HER, mTOR, DNA-PK) or Adapta (PI3K), ATP at Km apparent
Method: as §1

PI3Kγ [2] = molecular target: T6, PI3Kγ; test: biochemical kinase assay at ATP Km apparent; design: gene PIK3CG

EGFR, sequence (P00533 whole entry): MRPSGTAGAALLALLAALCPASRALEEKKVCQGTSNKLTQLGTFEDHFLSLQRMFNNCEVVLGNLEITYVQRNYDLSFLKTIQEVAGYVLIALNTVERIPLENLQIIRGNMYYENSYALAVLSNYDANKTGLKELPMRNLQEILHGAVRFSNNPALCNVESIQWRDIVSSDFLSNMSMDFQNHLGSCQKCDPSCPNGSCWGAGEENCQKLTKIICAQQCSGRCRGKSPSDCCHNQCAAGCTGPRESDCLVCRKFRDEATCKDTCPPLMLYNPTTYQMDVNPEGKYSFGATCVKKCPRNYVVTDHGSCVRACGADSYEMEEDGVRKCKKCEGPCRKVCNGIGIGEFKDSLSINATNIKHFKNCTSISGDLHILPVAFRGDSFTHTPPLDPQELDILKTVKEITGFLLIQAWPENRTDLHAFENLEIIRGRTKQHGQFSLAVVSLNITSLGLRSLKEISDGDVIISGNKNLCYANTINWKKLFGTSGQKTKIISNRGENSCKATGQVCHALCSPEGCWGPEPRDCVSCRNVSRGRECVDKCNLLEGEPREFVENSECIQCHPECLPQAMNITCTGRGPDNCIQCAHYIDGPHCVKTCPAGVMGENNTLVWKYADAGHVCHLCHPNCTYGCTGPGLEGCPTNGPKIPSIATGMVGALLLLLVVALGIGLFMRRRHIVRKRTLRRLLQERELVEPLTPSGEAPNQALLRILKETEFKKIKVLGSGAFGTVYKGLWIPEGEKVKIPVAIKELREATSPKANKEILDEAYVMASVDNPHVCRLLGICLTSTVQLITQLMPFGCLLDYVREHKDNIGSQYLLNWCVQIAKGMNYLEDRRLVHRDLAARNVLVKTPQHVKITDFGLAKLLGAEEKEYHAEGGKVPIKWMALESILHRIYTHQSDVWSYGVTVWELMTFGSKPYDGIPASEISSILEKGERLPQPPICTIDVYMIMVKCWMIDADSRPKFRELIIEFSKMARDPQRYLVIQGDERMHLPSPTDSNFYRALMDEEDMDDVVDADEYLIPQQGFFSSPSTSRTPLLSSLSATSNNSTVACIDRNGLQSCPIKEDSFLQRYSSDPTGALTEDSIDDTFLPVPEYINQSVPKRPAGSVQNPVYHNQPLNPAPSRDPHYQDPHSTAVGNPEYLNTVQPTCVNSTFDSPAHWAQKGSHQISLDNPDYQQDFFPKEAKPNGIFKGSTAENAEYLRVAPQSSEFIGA
T1 sequence (P04626 whole entry): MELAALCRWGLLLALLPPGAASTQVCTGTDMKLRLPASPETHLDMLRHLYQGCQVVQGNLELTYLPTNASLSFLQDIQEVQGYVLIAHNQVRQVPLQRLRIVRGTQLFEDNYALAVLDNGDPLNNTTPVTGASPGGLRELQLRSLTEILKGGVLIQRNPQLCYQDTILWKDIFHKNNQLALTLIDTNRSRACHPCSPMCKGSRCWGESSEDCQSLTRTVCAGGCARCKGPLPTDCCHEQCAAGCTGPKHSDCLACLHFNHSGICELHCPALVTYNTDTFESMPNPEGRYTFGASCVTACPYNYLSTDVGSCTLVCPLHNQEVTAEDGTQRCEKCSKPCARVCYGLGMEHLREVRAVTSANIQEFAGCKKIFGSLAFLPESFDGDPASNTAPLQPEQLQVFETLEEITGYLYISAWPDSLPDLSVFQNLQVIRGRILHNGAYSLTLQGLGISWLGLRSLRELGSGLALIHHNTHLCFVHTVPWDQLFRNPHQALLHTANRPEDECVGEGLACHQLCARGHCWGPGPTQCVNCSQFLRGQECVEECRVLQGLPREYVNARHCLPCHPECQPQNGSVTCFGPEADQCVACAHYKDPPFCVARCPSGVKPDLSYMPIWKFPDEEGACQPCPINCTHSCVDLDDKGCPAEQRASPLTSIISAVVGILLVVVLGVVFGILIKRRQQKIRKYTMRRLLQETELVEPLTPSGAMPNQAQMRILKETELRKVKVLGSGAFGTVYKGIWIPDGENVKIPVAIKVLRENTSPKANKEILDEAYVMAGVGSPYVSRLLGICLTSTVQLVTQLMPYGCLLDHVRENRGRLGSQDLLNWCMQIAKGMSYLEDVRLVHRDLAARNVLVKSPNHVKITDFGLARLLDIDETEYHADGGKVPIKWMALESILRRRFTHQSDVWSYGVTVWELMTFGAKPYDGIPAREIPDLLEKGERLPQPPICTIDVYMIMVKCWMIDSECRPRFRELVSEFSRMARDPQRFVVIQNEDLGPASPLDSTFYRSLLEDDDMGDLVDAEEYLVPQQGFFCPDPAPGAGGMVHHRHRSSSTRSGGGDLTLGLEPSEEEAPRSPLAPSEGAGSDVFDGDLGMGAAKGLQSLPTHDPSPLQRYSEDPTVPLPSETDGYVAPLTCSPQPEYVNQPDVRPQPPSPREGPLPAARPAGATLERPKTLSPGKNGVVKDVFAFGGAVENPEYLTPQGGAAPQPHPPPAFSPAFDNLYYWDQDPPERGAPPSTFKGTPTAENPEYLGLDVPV
T2 sequence (Q15303 whole entry): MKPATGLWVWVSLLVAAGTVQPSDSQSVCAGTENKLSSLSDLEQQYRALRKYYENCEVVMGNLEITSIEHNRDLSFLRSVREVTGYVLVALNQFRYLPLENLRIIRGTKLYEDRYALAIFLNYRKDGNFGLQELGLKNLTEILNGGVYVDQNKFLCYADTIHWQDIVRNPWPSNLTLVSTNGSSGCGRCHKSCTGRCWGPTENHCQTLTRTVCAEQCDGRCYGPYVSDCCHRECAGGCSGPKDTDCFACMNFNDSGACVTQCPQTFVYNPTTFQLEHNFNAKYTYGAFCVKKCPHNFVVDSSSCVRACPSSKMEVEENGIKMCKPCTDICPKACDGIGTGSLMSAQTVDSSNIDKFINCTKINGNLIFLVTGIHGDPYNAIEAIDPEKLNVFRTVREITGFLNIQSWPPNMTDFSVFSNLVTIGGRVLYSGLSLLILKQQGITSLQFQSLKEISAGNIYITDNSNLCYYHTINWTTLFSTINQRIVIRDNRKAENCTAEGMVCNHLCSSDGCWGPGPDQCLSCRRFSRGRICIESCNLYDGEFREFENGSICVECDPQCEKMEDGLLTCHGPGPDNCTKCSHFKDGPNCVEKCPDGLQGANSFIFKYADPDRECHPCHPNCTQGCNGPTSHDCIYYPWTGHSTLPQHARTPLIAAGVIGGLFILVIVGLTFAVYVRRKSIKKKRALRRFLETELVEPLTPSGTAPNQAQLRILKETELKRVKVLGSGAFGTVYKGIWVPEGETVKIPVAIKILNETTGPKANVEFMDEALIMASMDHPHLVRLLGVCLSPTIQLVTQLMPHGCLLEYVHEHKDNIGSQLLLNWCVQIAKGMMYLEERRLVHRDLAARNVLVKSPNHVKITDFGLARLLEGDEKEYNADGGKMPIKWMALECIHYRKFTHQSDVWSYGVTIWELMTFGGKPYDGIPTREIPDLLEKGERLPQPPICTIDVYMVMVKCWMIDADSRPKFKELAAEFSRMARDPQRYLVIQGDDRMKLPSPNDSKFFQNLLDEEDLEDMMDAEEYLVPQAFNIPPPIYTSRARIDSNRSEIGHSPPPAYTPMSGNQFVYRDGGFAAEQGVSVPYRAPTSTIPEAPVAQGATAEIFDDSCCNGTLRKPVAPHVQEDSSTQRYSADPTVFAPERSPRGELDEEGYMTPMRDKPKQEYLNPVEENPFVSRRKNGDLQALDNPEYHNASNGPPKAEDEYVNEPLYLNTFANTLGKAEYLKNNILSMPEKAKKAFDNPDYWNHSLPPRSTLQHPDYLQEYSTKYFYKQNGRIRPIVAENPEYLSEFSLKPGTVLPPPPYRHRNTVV
T6 sequence (P48736 whole entry): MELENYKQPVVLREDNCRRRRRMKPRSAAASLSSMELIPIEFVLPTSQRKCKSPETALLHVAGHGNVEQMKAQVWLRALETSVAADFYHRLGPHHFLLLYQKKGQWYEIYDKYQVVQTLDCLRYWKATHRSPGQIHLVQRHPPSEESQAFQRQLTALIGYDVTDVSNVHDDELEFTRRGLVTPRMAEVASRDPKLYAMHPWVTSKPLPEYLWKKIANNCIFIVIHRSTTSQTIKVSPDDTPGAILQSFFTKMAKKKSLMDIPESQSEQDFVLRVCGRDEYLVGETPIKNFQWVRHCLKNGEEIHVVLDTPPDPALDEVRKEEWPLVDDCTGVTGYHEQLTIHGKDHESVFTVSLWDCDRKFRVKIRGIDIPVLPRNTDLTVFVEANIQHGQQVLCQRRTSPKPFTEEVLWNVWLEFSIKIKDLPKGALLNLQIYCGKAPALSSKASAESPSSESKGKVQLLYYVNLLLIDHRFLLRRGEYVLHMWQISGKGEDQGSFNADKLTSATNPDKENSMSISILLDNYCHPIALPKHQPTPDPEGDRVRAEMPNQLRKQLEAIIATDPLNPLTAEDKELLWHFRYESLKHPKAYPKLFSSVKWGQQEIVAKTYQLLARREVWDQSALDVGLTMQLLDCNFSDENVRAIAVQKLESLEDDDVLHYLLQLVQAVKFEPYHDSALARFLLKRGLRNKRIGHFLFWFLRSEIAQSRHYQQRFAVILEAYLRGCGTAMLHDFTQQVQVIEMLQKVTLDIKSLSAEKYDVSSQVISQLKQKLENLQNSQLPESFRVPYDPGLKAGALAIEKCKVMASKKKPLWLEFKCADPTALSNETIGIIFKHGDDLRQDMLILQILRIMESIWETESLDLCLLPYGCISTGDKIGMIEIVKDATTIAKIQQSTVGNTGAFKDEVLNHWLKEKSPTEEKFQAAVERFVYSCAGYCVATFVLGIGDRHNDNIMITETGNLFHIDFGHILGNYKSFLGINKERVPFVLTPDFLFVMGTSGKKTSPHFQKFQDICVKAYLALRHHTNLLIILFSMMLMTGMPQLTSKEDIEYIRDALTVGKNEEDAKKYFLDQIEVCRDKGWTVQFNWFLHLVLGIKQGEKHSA

SMILES: Cc1nc(NC(=O)N2CCC[C@H]2C(N)=O)sc1-c1ccnc(C(C)(C)C(F)(F)F)c1 [Alpelisib]
- pIC50 (HER2): < 5.00
- pIC50 (HER4): < 5.00
- pIC50 (mTOR): 5.53
- pIC50 (EGFR): < 5.00

SMILES: COc1c(OCCCN2CCOCC2)ccc2c1N=C(NC(=O)c1cnc(N)nc1)N1CCN=C21 [Copanlisib]
- pIC50 (HER2): < 5.00
- pIC50 (HER4): < 5.00
- pIC50 (mTOR): 7.73
- pIC50 (EGFR): < 5.00

SMILES: CCN1CCN(Cc2ccc(-c3cc4c(N[C@H](C)c5ccccc5)ncnc4[nH]3)cc2)CC1 [NVP-AEE788]
- pIC50 (HER2): 7.58
- pIC50 (HER4): 6.66
- pIC50 (PI3Kβ): < 5.00
- pIC50 (PI3Kδ): < 5.00
- pIC50 (mTOR): < 5.00
- pIC50 (PI3Kα): < 5.00
- pIC50 (PI3Kγ [1]): < 5.00

SMILES: COc1ncc(-c2ccc3nccc(-c4ccnnc4)c3c2)cc1NS(=O)(=O)c1ccc(F)cc1F [Omipalisib]
- pIC50 (HER2): < 5.00
- pIC50 (HER4): < 5.00
- pIC50 (PI3Kγ [2]): 9.21
- pIC50 (EGFR): < 5.00
